In patent US20230219931A1, “FUSED HETEROARYL HYDROXAMATES AS STING AGONISTS” (BiSiChem Co., Ltd., priority 2022, published 2023) one finds EC50 data, which are given here for eleven compounds.

Structures can show the parent of a compound that is named as a salt.

The assay relates to ISG reporter activity in THP1-Dual cell. As to the kind of experiment: ISG reporter assay. The format is cell-based. The note with it: Homo sapiens, compounds incubated with cells for 24 hours, QUANTI-Blue, absorbance at 655 nm. On the procedure: [Worded in the source for another cell line; this cell line is reported under the same test.] THP1-Blue cells (cat. no. thp-isg) were purchased from InvivoGen (Sandiago, USA). Penicillin—streptomycin (cat. no. L0022-100), Fetal Bovine Serum (FBS) (cat. no. S1480-500) and Roswell Park Memorial Institute (RPMI) 1640 media (cat. L0498-500) were purchased from biowest (Nuaille, France). Zeocin (cat. no. ant-zn-OS) and Normocin (cat. no. ant-nr-1) were purchased from InvivoGen (Sandiago, USA). QUANTI-Blue™ (cat. no. rep-qbs) was purchased from InvivoGen. THP1-Blue cells were cultured in RPMI 1640 medium with 10% heat-inactivated FBS, 100 μg/ml Normocin, 100 μg/ml Zeocin and 100 U/ml-100 μg/ml penicillin-streptomycin. The cells were incubated at 37° C. in a humidified atmosphere of 5% CO2.
THP1-Blue cells were seeded at 5×10^4 cells/well (90 μl/well). 10 μl of compounds were added to the cells and incubated for 24 hours. 20 μl of cell culture supernatant was dispensed new 96-well plate (cat. no. 30096) with 180 μl of QUANTI-Blue™ solution and incubated for 15 minutes at 37° C. The absorbance was measured by Varioskan Lux (Thermofisher Scientific, USA) at 655 nm.
A general note: A reporter such as luciferase makes a cellular process visible.

Consider `CCn1nc(C)cc1C(=O)Nc1nc2cc(C(N)=O)cc(OC)c2n1C/C=C/Cn1c(NC(=O)c2cc(C)nn2CC)nc2cc(C(N)=O)cc(OCC#CC3CCN(C(=O)C4CCN(C(=O)OC(C)(C)C)CC4)CC3)c21` [Example 12, tert-butyl (E)-4-(4-(3-((5-carbamoyl-1-(4-(5-carbamoyl-2-(1-ethyl-3-methyl-1H-pyrazole-5-carboxamido)-7-methoxy-1H-benzo[d]imidazol-1-yl)but-2-en-1-yl)-2-(1-ethyl-3-methyl-1H-pyrazole-5-carboxamido)-1H-benzo[d]imidazol-7-yl)oxy)prop-1-yn-1-yl)piperidine-1-carbonyl)piperidine-1-carboxylate], for which the EC50 is less than 50 nM.

In the case of `CCn1nc(C)cc1C(=O)Nc1nc2cc(C(N)=O)cc(OC)c2n1C/C=C/Cn1c(NC(=O)c2cc(C)nn2CC)nc2cc(C(N)=O)cc(OCC#CC3CCN(C(=O)c4cc(C)nn4CC)CC3)c21` [Example 13, (E)-1-(4-(5-carbamoyl-2-(1-ethyl-3-methyl-1H-pyrazole-5-carboxamido)-7-methoxy-1H-benzo[d]imidazol-1-yl)but-2-en-1-yl)-7-((3-(1-(1-ethyl-3-methyl-1H-pyrazole-5-carbonyl)piperidin-4-yl)prop-2-yn-1-yl)oxy)-2-(1-ethyl-3-methyl-1H-pyrazole-5-carboxamido)-1H-benzo[d]imidazole-5-carboxamide], the EC50 was less than 50 nM.

In the case of `CCn1nc(C)cc1C(=O)Nc1nc2cc(C(N)=O)cc(OC)c2n1C/C=C/Cn1c(NC(=O)c2cc(C)nn2CC)nc2cc(C(N)=O)cc(OCC#CC3CCN(C(=O)NC4CC4)CC3)c21` [Example 14, (E)-1-(4-(5-carbamoyl-2-(1-ethyl-3-methyl-1H-pyrazole-5-carboxamido)-7-methoxy-1H-benzo[d]imidazol-1-yl)but-2-en-1-yl)-7-((3-(1-(cyclopropylcarbamoyl)piperidin-4-yl)prop-2-yn-1-yl)oxy)-2-(1-ethyl-3-methyl-1H-pyrazole-5-carboxamido)-1H-benzo[d]imidazole-5-carboxamide], the EC50 was less than 50 nM.

With `CCn1nc(C)cc1C(=O)Nc1nc2cc(C(N)=O)cc(OC)c2n1C/C=C/Cn1c(NC(=O)c2cc(C)nn2CC)nc2cc(C(N)=O)cc(OCC#CC3CCN(C(=O)N4CCOCC4)CC3)c21` [Example 15, (E)-1-(4-(5-carbamoyl-2-(1-ethyl-3-methyl-1H-pyrazole-5-carboxamido)-7-((3-(1-(morpholine-4-carbonyl)piperidin-4-yl)prop-2-yn-1-yl)oxy)-1H-benzo[d]imidazol-1-yl)but-2-en-1-yl)-2-(1-ethyl-3-methyl-1H-pyrazole-5-carboxamido)-7-methoxy-1H-benzo[d]imidazole-5-carboxamide], the EC50 is less than 50 nM.

For the compound `CCn1nc(C)cc1C(=O)Nc1nc2cc(C(N)=O)cc(OC)c2n1C/C=C/Cn1c(NC(=O)c2cc(C)nn2CC)nc2cc(C(N)=O)cc(OCC#CC3CCN(C(=O)N4CCN(C(=O)OC(C)(C)C)CC4)CC3)c21` [Example 16, tert-butyl (E)-4-(4-(3-((5-carbamoyl-1-(4-(5-carbamoyl-2-(1-ethyl-3-methyl-1H-pyrazole-5-carboxamido)-7-methoxy-1H-benzo[d]imidazol-1-yl)but-2-en-1-yl)-2-(1-ethyl-3-methyl-1H-pyrazole-5-carboxamido)-1H-benzo[d]imidazol-7-yl)oxy)prop-1-yn-1-yl)piperidine-1-carbonyl)piperazine-1-carboxylate], the EC50 was less than 50 nM.

The compound `CCn1nc(C)cc1C(=O)Nc1nc2cc(C(N)=O)cc(OC)c2n1C/C=C/Cn1c(NC(=O)c2cc(C)nn2CC)nc2cc(C(N)=O)cc(OCC#CC3CCN(C(=O)N4CCNCC4)CC3)c21` [Example 17, (E)-1-(4-(5-carbamoyl-2-(1-ethyl-3-methyl-1H-pyrazole-5-carboxamido)-7-((3-(1-(piperazine-1-carbonyl)piperidin-4-yl)prop-2-yn-1-yl)oxy)-1H-benzo[d]imidazol-1-yl)but-2-en-1-yl)-2-(1-ethyl-3-methyl-1H-pyrazole-5-carboxamido)-7-methoxy-1H-benzo[d]imidazole-5-carboxamide hydrochloride] came in with an EC50 of less than 50 nM.

`CCn1nc(C)cc1C(=O)Nc1nc2cc(C(N)=O)cc(OC)c2n1C/C=C/Cn1c(NC(=O)c2cc(C)nn2CC)nc2cc(C(N)=O)cc(OCC#CC3CCN(C(=O)N4CCC(O)CC4)CC3)c21` [Example 18, (E)-1-(4-(5-carbamoyl-2-(1-ethyl-3-methyl-1H-pyrazole-5-carboxamido)-7-((3-(1-(4-hydroxypiperidine-1-carbonyl)piperidin-4-yl)prop-2-yn-1-yl)oxy)-1H-benzo[d]imidazol-1-yl)but-2-en-1-yl)-2-(1-ethyl-3-methyl-1H-pyrazole-5-carboxamido)-7-methoxy-1H-benzo[d]imidazole-5-carboxamide] had an EC50 of less than 50 nM.

In the case of `CCn1nc(C)cc1C(=O)Nc1nc2cc(C(N)=O)cc(OC)c2n1C/C=C/Cn1c(NC(=O)c2cc(C)nn2CC)nc2cc(C(N)=O)cc(OCC#CC3CCN(S(C)(=O)=O)CC3)c21` [Example 19, (E)-1-(4-(5-carbamoyl-2-(1-ethyl-3-methyl-1H-pyrazole-5-carboxamido)-7-((3-(1-(methylsulfonyl)piperidin-4-yl)prop-2-yn-1-yl)oxy)-1H-benzo[d]imidazol-1-yl)but-2-en-1-yl)-2-(1-ethyl-3-methyl-1H-pyrazole-5-carboxamido)-7-methoxy-1H-benzo[d]imidazole-5-carboxamide], the EC50 is less than 50 nM.

`CCn1nc(C)cc1C(=O)Nc1nc2cc(C(N)=O)cc(OC)c2n1C/C=C/Cn1c(NC(=O)c2cc(C)nn2CC)nc2cc(C(N)=O)cc(OCC#CC3CCN(S(=O)(=O)C(C)C)CC3)c21` [Example 20, (E)-1-(4-(5-carbamoyl-2-(1-ethyl-3-methyl-1H-pyrazole-5-carboxamido)-7-((3-(1-(isopropylsulfonyl)piperidin-4-yl)prop-2-yn-1-yl)oxy)-1H-benzo[d]imidazol-1-yl)but-2-en-1-yl)-2-(1-ethyl-3-methyl-1H-pyrazole-5-carboxamido)-7-methoxy-1H-benzo[d]imidazole-5-carboxamide] showed an EC50 of less than 50 nM.

The compound `CCn1nc(C)cc1C(=O)Nc1nc2cc(C(N)=O)cc(OC)c2n1C/C=C/Cn1c(NC(=O)c2cc(C)nn2CC)nc2cc(C(N)=O)cc(OCC#CC3CCN(S(=O)(=O)C4CC4)CC3)c21` [Example 21, (E)-1-(4-(5-carbamoyl-2-(1-ethyl-3-methyl-1H-pyrazole-5-carboxamido)-7-methoxy-1H-benzo[d]imidazol-1-yl)but-2-en-1-yl)-7-((3-(1-(cyclopropylsulfonyl)piperidin-4-yl)prop-2-yn-1-yl)oxy)-2-(1-ethyl-3-methyl-1H-pyrazole-5-carboxamido)-1H-benzo[d]imidazole-5-carboxamide] gave an EC50 of less than 50 nM.

With `CCn1nc(C)cc1C(=O)Nc1nc2cc(C(N)=O)cc(OC)c2n1C/C=C/Cn1c(NC(=O)c2cc(C)nn2CC)nc2cc(C(N)=O)cc(OCC#CC3CCN(S(=O)(=O)C4CCCC4)CC3)c21` [Example 22, (E)-1-(4-(5-carbamoyl-2-(1-ethyl-3-methyl-1H-pyrazole-5-carboxamido)-7-methoxy-1H-benzo[d]imidazol-1-yl)but-2-en-1-yl)-7-((3-(1-(cyclopentylsulfonyl)piperidin-4-yl)prop-2-yn-1-yl)oxy)-2-(1-ethyl-3-methyl-1H-pyrazole-5-carboxamido)-1H-benzo[d]imidazole-5-carboxamide], the EC50 was less than 50 nM.

Usually EC50 stands for the midpoint of the concentration-response curve. Low readings indicate greater potency, high ones weaker potency.
